Results reported in US20260022143A1, “Cyclic Peptide Inhibitors of IL-23” (JANSSEN PHARMACEUTICA NV, priority 2022, published 2026).
Structures can show the parent of a compound that is named as a salt. Starred links: 1 amine or outer side, 2 acyl side, 3 side chain; linkers in the order of their positions; H or OH if unused. Positions of bridges follow the written chain, without caps; N, C: chain ends. Non-standard residues stand in square brackets, D forms with d. Residues, ends and D or L forms follow the SMILES beside them. Groups on a side chain read outwards from the residue. *: point of attachment. Trp(7-(3-AcNH-Ph)) = CC(=O)Nc1cccc(-c2cccc3c(C[C@H](N)C(=O)O)c[nH]c23)c1; X33 = C[N+](C)(C)CCCCc1cn(-c2ccc(C[C@H](N[*:1])C(=O)[*:2])cc2)nn1; Me3N+(CH2)2O(CH2)2O(CH2)2CO = C[N+](C)(C)CCOCCOCCC(=O)*; Trp(7-Me) = Cc1cccc2c(C[C@H](N)C(=O)O)c[nH]c12; Dab(NMeAc) = CC(=O)N(C)CC[C@H](N)C(=O)O; X1 = CN(CC[C@H](N[*:1])C(=O)[*:2])[*:3]; γGlu = O=C(O)[C@H](CCC(=O)[*:2])N[*:1]; 2Nal = N[C@@H](Cc1ccc2ccccc2c1)C(=O)O; AEF = NCCOc1ccc(C[C@H](N)C(=O)O)cc1; X77 = COCCN1CC[N+]2(CC1)CCN(CC*)CC2; dNMeY = CN[C@H](Cc1ccc(O)cc1)C(=O)O; 3Pal = N[C@@H](Cc1cccnc1)C(=O)O; Myristoyl = CCCCCCCCCCCCCC(=O)*; Lys(Me) = CNCCCC[C@H](N)C(=O)O; Chg = N[C@H](C(=O)O)C1CCCCC1; NMeK = CN[C@@H](CCCCN)C(=O)O; Pen = CC(C)(S)[C@H](N)C(=O)O; αMeK = C[C@](N)(CCCCN)C(=O)O; Lauroyl = CCCCCCCCCCCC(=O)*; X88 = COCC[N+](C)(C)CCCC*; Thp = NC1(C(=O)O)CCOCC1; X3 = C[N+](C)(C)CCCCC*; AEEA = NCCOCCOCC(=O)O; Tfa = O=C(C(F)(F)F)*; Sar = CNCC(=O)O

experiment: Exposed Polar Surface Area (EPSA); format: physicochemical; conditions: SFC on Chirex 3014 column; sample 1 mM DMSO stock; read-out: EPSA
Outline: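 EPSA, in Å^2, is read from SFC retention time through a linear relationship established with eight calibration standards. Separation uses a Chirex 3014 stationary phase, 35 °C, 14 MPa back pressure, and a 5–60% methanol/ammonium formate modifier gradient in CO2.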

EPSA	Compound
155 A^2	CC(=O)N(C)CCCC[C@@H]1NC(=O)[C@H](Cc2c[nH]c3c(C)cccc23)NC(=O)[C@H]([C@@H](C)O)NC(=O)[C@H](CC(=O)N(C)C)NC(=O)[C@@H](NC(=O)CCOCCOCC[N+](C)(C)C)C(C)(C)SSC(C)(C)[C@@H](C(=O)N[C@@H](Cc2ccc(OCCCCC[N+](C)(C)C)cc2)C(=O)N[C@@H](Cc2ccc3ccccc3c2)C(=O)N[C@H](C(=O)N[C@@H](CCCCN(C)C(C)=O)C(=O)N[C@@H](CC(N)=O)C(=O)N[C@@H](Cc2cccnc2)C(=O)N(C)CC(=O)N(C)C)C2CCCCC2)NC1=O [compound 340, cPEG3aCO-Pen(3)-N(N(Me)2)-T-7MeW-K(NMeAc)-Pen(3)-TMAPF-2Nal-Chg-K(NMeAc)-N-3Pya-Sar-CON(Me)2] ({Me3N+(CH2)2O(CH2)2O(CH2)2CO}-[Pen]D(NMe2)T[Trp(7-Me)][Lys(Me)](Ac)[Pen]Y(X3)[2Nal][Chg][Lys(Me)](Ac)N[3Pal][Sar]-NMe2; disulfide 1-6)
163 A^2	CC(=O)NCCCC[C@@H]1NC(=O)[C@H](Cc2c[nH]c3c(-c4cccc(NC(C)=O)c4)cccc23)NC(=O)[C@H]([C@@H](C)O)NC(=O)[C@H](CC(N)=O)NC(=O)[C@@H](NC(C)=O)C(C)(C)SSC(C)(C)[C@@H](C(=O)N[C@@H](Cc2ccc(OCCCCC[N+](C)(C)C)cc2)C(=O)N[C@@H](Cc2ccc3ccccc3c2)C(=O)NC2(C(=O)N[C@@H](CCCCNC(C)=O)C(=O)N[C@@H](CC(N)=O)C(=O)N[C@@H](Cc3cccnc3)C(=O)N(C)CC(N)=O)CCOCC2)NC1=O [compound 452, MeCO-Pen(3)-N-T-7(3NAcPh)W-K(Ac)-Pen(3)-TMAPF-2Nal-THP-K(Ac)-N-3Pya-Sar-CONH2] (Ac-[Pen]NT[Trp(7-(3-AcNH-Ph))]K(Ac)[Pen]Y(X3)[2Nal][Thp]K(Ac)N[3Pal][Sar]-NH2; disulfide 1-6)
184 A^2	CCCCCCCCCCCC(=O)N[C@@H](CCC(=O)NCCOCCOCC(=O)NCCOCCOCC(=O)NCCCC[C@@H](NC(=O)CCOCCOCC[N+](C)(C)C)C(=O)N[C@@H]1C(=O)N[C@@H](CC(=O)N(C)C)C(=O)N[C@@H]([C@@H](C)O)C(=O)N[C@@H](Cc2c[nH]c3c(C)cccc23)C(=O)N[C@@H](CCCCNC(C)=O)C(=O)N[C@H](C(=O)N[C@@H](Cc2ccc(OCCCCC[N+](C)(C)C)cc2)C(=O)N[C@@H](Cc2ccc3ccccc3c2)C(=O)NC2(C(=O)N[C@@H](CCCCN(C)C(C)=O)C(=O)N[C@@H](CC(N)=O)C(=O)N[C@@H](Cc3cccnc3)C(=O)N(C)[C@@H](CCCCNC(=O)COCCOCCNC(=O)COCCOCCNC(=O)CC[C@H](NC(=O)CCCCCCCCCCC)C(=O)O)C(N)=O)CCOCC2)C(C)(C)SSC1(C)C)C(=O)O [compound 348, cPEG3aCO-k(PEG2PEG2gEC12)-Pen(3)-N(N(Me)2)-T-7MeW-K(Ac)-Pen(3)-TMAPF-2Nal-THP-K(NMeac)-N-3Pya-NMeK(PEG2PEG2gEC12)-CONH2] ({Me3N+(CH2)2O(CH2)2O(CH2)2CO}-[dK]([AEEA-AEEA-γGlu-Lauroyl])[Pen]D(NMe2)T[Trp(7-Me)]K(Ac)[Pen]Y(X3)[2Nal][Thp][Lys(Me)](Ac)N[3Pal][NMeK]([AEEA-AEEA-γGlu-Lauroyl])-NH2; disulfide 2-7)
157 A^2	CCCCCCCCCCCCCC(=O)N[C@@H](CCC(=O)NCCOCCOCC(=O)NCCOCCOCC(=O)NCCCC[C@@H]1NC(=O)[C@H](Cc2c[nH]c3c(C)cccc23)NC(=O)[C@H]([C@@H](C)O)NC(=O)[C@H](CC(=O)N(C)C)NC(=O)[C@@H](NC(=O)CCOCCOCC[N+](C)(C)C)C(C)(C)SSC(C)(C)[C@@H](C(=O)N[C@@H](Cc2ccc(OCCCCC[N+](C)(C)C)cc2)C(=O)N[C@@H](Cc2ccc3ccccc3c2)C(=O)NC2(C(=O)N[C@@H](CCCCN(C)C(C)=O)C(=O)N[C@@H](CC(N)=O)C(=O)N[C@@H](Cc3cccnc3)C(=O)N(C)CC(=O)N(C)C)CCOCC2)NC1=O)C(=O)O [compound 399, cPEG3aCO-Pen(3)-N(N(Me)2)-T-7MeW-K(PEG2PEG2gEC14)-Pen(3)-TMAPF-2Nal-THP-K(NMeAc)-N-3Pya-Sar-CON(Me)2] ({Me3N+(CH2)2O(CH2)2O(CH2)2CO}-[Pen]D(NMe2)T[Trp(7-Me)]K([AEEA-AEEA-γGlu-Myristoyl])[Pen]Y(X3)[2Nal][Thp][Lys(Me)](Ac)N[3Pal][Sar]-NMe2; disulfide 1-6)
182 A^2	CC(=O)NCCCC[C@@H]1NC(=O)[C@H](Cc2c[nH]c3c(C)cccc23)NC(=O)[C@H]([C@@H](C)O)NC(=O)[C@H](CC(N)=O)NC(=O)[C@@H](NC(=O)COCCOCCNC(=O)COCCOCCNC(=O)COc2ccc(-c3ccc(F)cc3F)cc2C(=O)O)C(C)(C)SSC(C)(C)[C@@H](C(=O)N[C@@H](Cc2ccc(OCCCCC[N+](C)(C)C)cc2)C(=O)N[C@@H](Cc2ccc3ccccc3c2)C(=O)NC2(C(=O)N[C@@H](CCCCN(C)C(C)=O)C(=O)N[C@@H](CC(N)=O)C(=O)N[C@@H](Cc3cccnc3)C(=O)N(C)CC(N)=O)CCOCC2)NC1=O [compound 490, DFNPEG2PEG2CO-Pen(3)-N-T-7MeW-K(Ac)-Pen(3)-TMAPF-2Nal-THP-K(Ac)-N-3Pya-Sar-CONH2]

Second part, the compound before the results:

Compound	EPSA
CC(=O)N(C)CCCC[C@@H]1NC(=O)[C@H](Cc2c[nH]c3c(C)cccc23)NC(=O)[C@H]([C@@H](C)O)NC(=O)[C@H](CC(=O)N(C)C)NC(=O)[C@@H](NC(=O)CCOCCOCC[N+](C)(C)C)C(C)(C)SSC(C)(C)[C@@H](C(=O)N[C@@H](Cc2ccc(-n3cc(CCCC[N+](C)(C)C)nn3)cc2)C(=O)N[C@@H](Cc2ccc3ccccc3c2)C(=O)NC2(C(=O)N[C@@H](CCCCN(C)C(C)=O)C(=O)N[C@@H](CC(N)=O)C(=O)N[C@@H](Cc3cccnc3)C(=O)N(C)CC(=O)N(C)C)CCOCC2)NC1=O [compound 302, cPEG3aCO-Pen(3)-N(N(Me)2)-T-7MeW-K(NMeAc)-Pen(3)-F(4TzlTMA4)-] ({Me3N+(CH2)2O(CH2)2O(CH2)2CO}-[Pen]D(NMe2)T[Trp(7-Me)][Lys(Me)](Ac)[Pen][X33][2Nal][Thp][Lys(Me)](Ac)N[3Pal][Sar]-NMe2; disulfide 1-6)	155 A^2
CC(=O)N(C)CC[C@H](NC(=O)C1(NC(=O)[C@H](Cc2ccc3ccccc3c2)NC(=O)[C@H](Cc2ccc(OCCN)cc2)NC(=O)[C@H]2NC(=O)[C@H](CCN(C)C(=O)CCOCCOCC[N+](C)(C)C)NC(=O)[C@H](Cc3c[nH]c4c(C)cccc34)NC(=O)[C@H]([C@@H](C)O)NC(=O)[C@H](CC(=O)N(C)C)NC(=O)[C@@H](NC(=O)CCOCCOCC[N+](C)(C)C)C(C)(C)SSC2(C)C)CCOCC1)C(=O)N[C@@H](CC(N)=O)C(=O)N[C@@H](Cc1cccnc1)C(=O)N(C)CC(=O)N(C)C [compound 196, cPEG3aCO-Pen(3)-N(N(Me)2)-T-7MeW-Dab(NMecPEG3a)-Pen(3)-AEF-2Nal-THP-Dab(NMeAc)-N-3Pya-Sar-CON(Me)2] ({Me3N+(CH2)2O(CH2)2O(CH2)2CO}-[Pen]D(NMe2)T[Trp(7-Me)][X1](Me3N+(CH2)2O(CH2)2O(CH2)2CO)[Pen][AEF][2Nal][Thp][Dab(NMeAc)]N[3Pal][Sar]-NMe2; disulfide 1-6 (inferred))	149 A^2
COCC[N+](C)(C)CCCCOc1ccc(C[C@H](NC(=O)[C@H]2NC(=O)[C@H](CCCCN(C)C(C)=O)NC(=O)[C@H](Cc3c[nH]c4c(C)cccc34)NC(=O)[C@H]([C@@H](C)O)NC(=O)[C@H](CC(=O)N(C)C)NC(=O)[C@@H](NC(=O)CCOCCOCC[N+](C)(C)C)C(C)(C)SSC2(C)C)C(=O)N[C@@H](Cc2ccc3ccccc3c2)C(=O)NC2(C(=O)N[C@@H](CCCCN(C)C(C)=O)C(=O)N[C@@H](CC(N)=O)C(=O)N[C@@H](Cc3cccnc3)C(=O)N(C)CC(=O)N(C)C)CCOCC2)cc1 [compound 227, cPEG3aCO-Pen(3)-N(N(Me)2)-T-7MeW-K(NMeAc)-Pen(3)-mPEG2TMA4F-2Nal-THP-K(NMeAc)-N-3Pya-Sar-CON(Me)2] ({Me3N+(CH2)2O(CH2)2O(CH2)2CO}-[Pen]D(NMe2)T[Trp(7-Me)][Lys(Me)](Ac)[Pen]Y(X88)[2Nal][Thp][Lys(Me)](Ac)N[3Pal][Sar]-NMe2; disulfide 1-6)	139 A^2
CC(=O)NCCCC[C@@H]1NC(=O)[C@H](Cc2c[nH]c3c(C)cccc23)NC(=O)[C@H]([C@@H](C)O)NC(=O)[C@H](CC(N)=O)NC(=O)[C@@H](NC(C)=O)C(C)(C)SSC(C)(C)[C@@H](C(=O)N[C@@H](Cc2ccc(OCCN)cc2)C(=O)N[C@@H](Cc2ccc3ccccc3c2)C(=O)N[C@@](C)(CCCCN)C(=O)N[C@@H](CCCCNC(C)=O)C(=O)N[C@@H](CC(N)=O)C(=O)N[C@@H](CC(N)=O)C(=O)N(C)[C@H](Cc2ccc(O)cc2)C(N)=O)NC1=O [compound 13, MeCO-Pen(3)-N-T-7MeW-K(Ac)-Pen(3)-AEF-2Nal-aMeK-K(Ac)-N-N-NMeDTyr-CONH2] (Ac-[Pen]NT[Trp(7-Me)]K(Ac)[Pen][AEF][2Nal][αMeK]K(Ac)NN[dNMeY]-NH2; disulfide 1-6)	174 A^2
COCCN1CC[N+]2(CC1)CCN(CCOc1ccc(C[C@H](NC(=O)[C@H]3NC(=O)[C@H](CCCCN(C)C(C)=O)NC(=O)[C@H](Cc4c[nH]c5c(C)cccc45)NC(=O)[C@H]([C@@H](C)O)NC(=O)[C@H](CC(=O)N(C)C)NC(=O)[C@@H](NC(=O)CCOCCOCC[N+](C)(C)C)C(C)(C)SSC3(C)C)C(=O)N[C@@H](Cc3ccc4ccccc4c3)C(=O)NC3(C(=O)N[C@@H](CCCCN(C)C(C)=O)C(=O)N[C@@H](CC(N)=O)C(=O)N[C@@H](Cc4cccnc4)C(=O)N(C)CC(=O)N(C)C)CCOCC3)cc1)CC2 [compound 262, cPEG3aCO-Pen(3)-N(N(Me)2)-T-7MeW-K(NMeAc)-Pen(3)-MTASF-2Nal-THP-K(NMeAc)-N-3Pya-Sar-CON(Me)2] ({Me3N+(CH2)2O(CH2)2O(CH2)2CO}-[Pen]D(NMe2)T[Trp(7-Me)][Lys(Me)](Ac)[Pen]Y(X77)[2Nal][Thp][Lys(Me)](Ac)N[3Pal][Sar]-NMe2; disulfide 1-6)	145 A^2
CC(=O)N(C)CCCC[C@@H]1NC(=O)[C@H](Cc2c[nH]c3c(C)cccc23)NC(=O)[C@H]([C@@H](C)O)NC(=O)[C@H](CC(N)=O)NC(=O)[C@@H](NC(=O)C(F)(F)F)C(C)(C)SSC(C)(C)[C@@H](C(=O)N[C@@H](Cc2ccc(OCCN)cc2)C(=O)N[C@@H](Cc2ccc3ccccc3c2)C(=O)NC2(C(=O)N[C@@H](CCCCN(C)C(C)=O)C(=O)N[C@@H](CC(N)=O)C(=O)N[C@@H](Cc3cccnc3)C(=O)N(C)CC(N)=O)CCOCC2)NC1=O [compound 69] (Tfa-[Pen]NT[Trp(7-Me)][Lys(Me)](Ac)[Pen][AEF][2Nal][Thp][Lys(Me)](Ac)N[3Pal][Sar]-NH2; disulfide 1-6)	161 A^2
